SMILES strings stand for the structures.

One data set has as its target T1, DLK (Homo sapiens, UniProt Q12852).
T1 construct: 10 nM DLK, catalytic domain, Carna Biosiences; purchased Carna Biosciences ('Carna Biosiences' [sic])
T1 sequence (Q12852 125-366 limits assumed): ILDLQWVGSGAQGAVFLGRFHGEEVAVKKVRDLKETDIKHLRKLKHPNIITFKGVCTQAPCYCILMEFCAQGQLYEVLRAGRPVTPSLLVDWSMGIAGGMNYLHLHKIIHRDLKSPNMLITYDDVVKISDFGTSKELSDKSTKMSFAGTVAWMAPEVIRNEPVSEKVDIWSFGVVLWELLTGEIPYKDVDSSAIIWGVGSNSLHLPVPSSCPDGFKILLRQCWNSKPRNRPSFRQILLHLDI
Description: DLK biochemical assay (TR-FRET, MKK7 phosphorylation). To be noted: DLK catalytic domain, MKK7 substrate, 60 μM ATP. In short, it runs like this: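 Human DLK activity measured as phosphorylation of His-tagged MKK7 at T275/S277, detected by TR-FRET between Eu-anti-phospho-MKK7 donor (excitation 340 nm) and XL665-anti-His acceptor (665 nm). Signal taken as the XL665/Eu ratio. Detection buffer: 25 mM Tris/HCl pH 7.5, 100 mM EDTA, 100 mM NaCl, 200 mM KF, 0.01% Tween 20.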
(TR-FRET usually uses a lanthanide donor and a delayed reading to cut background.)

Another data set concerns the target T2, LZK (Homo sapiens, UniProt O43283).
T2 construct: 10 nM LZK, catalytic domain, Carna Biosiences in assay buffer; purchased Carna Biosciences ('Carna Biosiences' [sic])
T2 sequence (O43283 168-409 limits assumed): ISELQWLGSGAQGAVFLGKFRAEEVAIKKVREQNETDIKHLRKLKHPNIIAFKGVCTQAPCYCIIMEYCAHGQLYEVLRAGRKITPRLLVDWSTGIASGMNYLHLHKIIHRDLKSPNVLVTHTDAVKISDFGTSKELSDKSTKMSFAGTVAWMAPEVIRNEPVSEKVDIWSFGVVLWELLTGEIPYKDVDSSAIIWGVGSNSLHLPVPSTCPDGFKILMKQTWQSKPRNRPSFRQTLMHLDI
The experiment in a line: LZK biochemical assay (TR-FRET, MKK7 phosphorylation). To be noted: LZK catalytic domain, MKK7 substrate, 15 μM ATP.

A further data set relates to retina. Description: Retinal structure and function after intravitreal injection (optical coherence tomography, electroretinographs). To be noted: 7 days following intravitreal injection of 10 mM, vs vehicle (DMSO) (FIG. 10, 11A, 11B). The data set is classed as in vivo, mice. Here is the method:
Optical coherence tomography images of mice 7 days following intravitreal injections of either vehicle (DMSO) or 10 mM I-81 were obtained (FIG. 10). Retinal electroretinographs were also acquired (FIGS. 11A and 11B).

In another data set the test system is hRGCs. Description: hRGC survival under rotenone or CCCP (Cell Titer Glo). The data set is classed as cell-based, human. To be noted: 1 uM rotenone or 30 uM CCCP, increasing doses, 72 hours (FIG. 4). As for the experimental part: (§1) H7 or H9 human embryonic stem cells or patient-derived induced pluripotent stem cells were modified to express mouse Thy1.2 and tdTomato from the BRN3B locus (Sluch et al., 2017). To produce RGCs, stem cells were dissociated to single cells and plated on Matrigel (Corning, USA) coated plates at a density of 52.6 K/cm^2 in mTeSR1 with […] blebbistatin, a time point designated as day minus 1 (d-1). One day after plating, mTeSR1 was completely exchanged for N2B27 media [1:1 mix of DMEM/F12 and Neurobasal with GlutaMAX Supplement, antibiotic-antimycotic, 1% N2 Supplement, and 2% B27 Supplement (all from ThermoFisher Scientific)] to start differentiation; this day was designated as day 0 (d0). Small molecules were added to the cells on day 1 (dl), 24 hours after d0. Small molecule addition was done in fresh N2B27 media. Cells were fed with a full exchange of N2B27 media every other day unless a small molecule was to be removed or added on that day of differentiation, requiring daily feeding. […] After 35 days in culture, when abundant RGCs have appeared (indicated by red fluorescence), cultures were dissociated into a single cell suspension. […]
hRGCs were challenged with (A) 1 uM rotenone or (B) 30 uM CCCP in the presence of increasing doses of I-84 for 72 hours. Cell survival was quantified using Cell Titer Glo, an ATP-based luminescent assay.
For orientation: Cellular ATP, detected with luciferase, serves as a proxy for viable cell number.

Data set [1] relates to human stem cell derived RGCs. The experiment in a line: Protection of human stem cell derived RGCs in models of mitochondrial injury (FIG. 4). It is filed as cell-based. Here is the method: as §1, with “d0.” for “d0. Small molecule addition was done in fresh N2B27 media. Cells were fed with a full exchange of N2B27 media every other day unless a small molecule was to be removed or added on that day of differentiation, requiring daily feeding.”
In order to test compounds, RGCs were plated in 96- or 384-well Nunclon or Falcon dishes. […] For both sets of RGCs, increasing doses of the kinase inhibitors was added at the time of injury and survival was quantitated after 72 hours using CellTiter-Glo (Promega, Madison) and measuring relative light units (RLU) or by staining cultures with conventional viability dyes (i.e. ethidium homodimer exclusion, calcein AM uptake) and measuring survival by automated image analysis.

For the compound `CC[C@H](C)NC(=O)c1cc(-c2cnn([C@H](c3ccc(C(F)(F)F)nc3)C3CCN(C(=O)OC(C)(C)C)CC3)c2)cn2nc(N)nc12` [Example I-81, tert-Butyl 4-{(4-{2-amino-8-[(2S)-butan-2-ylcarbamoyl][1,2,4]triazolo[1,5-a]pyridin-6-yl}-1H-pyrazol-1-yl)[6-(trifluoromethyl)pyridin-3-yl]methyl}piperidine-1-carboxylate], the half-maximal inhibitory concentration (IC50) at DLK turned out to be 6.6 nM; at LZK, 8.5 nM. In the data set with retina, the “structural or functional toxicity to the retina” value is recorded as “did not induce structural or functional toxicity to the retina”.
Take `CC[C@H](C)NC(=O)c1cc(-c2cnn([C@H](c3ccc(C(F)(F)F)nc3)C3CCN(C(C)=O)CC3)c2)cn2nc(N)nc12` [Example I-84, 6-(1-{(1-Acetylpiperidin-4-yl)[6-(trifluoromethyl)pyridin-3-yl]methyl}-1H-pyrazol-4-yl)-2-amino-N-[(2S)-butan-2-yl][1,2,4]triazolo[1,5-a]pyridine-8-carboxamide]: the “cell survival of hRGCs” value in the data set on hRGCs is “protective to human stem cell derived RGCs in models of mitochondrial injury”. For the same compound, the half-maximal inhibitory concentration (IC50) is 0.5 nM against DLK and 1.2 nM on LZK. Besides, in data set [1], the “protection of human stem cell derived RGCs” value was “protective”.

A word on the IC50: it is the midpoint of a concentration-inhibition curve. Read a low IC50 as higher potency.

For the origin of these results see US20230086702A1, “SUBSTITUTED 2-AMINO-PYRAZOLYL-[1,2,4]TRIAZOLO[1,5A]PYRIDINE DERIVATIVES AND USE THEREOF” (The Johns Hopkins University, priority 2019, published 2023).
